From the NIST ThermoML archive (doi:10.1016/j.fluid.2015.03.015)

Test: refractive index (other wavelength) (dimensionless); xn = mol fraction of the nth substance listed

CCCC(C)O (centres undefined) [pentan-2-ol] + CCCCCCCC[n+]1ccn(C)c1.F[B-](F)(F)F
Minimum deviation
Conditions	refractive index
294.64 K, Liquid mixture 2, Wavelength=623.8 nm, x2 = 0.168	1.4134
294.68 K, Liquid mixture 1, Wavelength=623.8 nm, x2 = 0.065	1.4084
294.68 K, Liquid mixture 2, Wavelength=623.8 nm, x2 = 0.166	1.4133
294.73 K, Liquid mixture 1, Wavelength=623.8 nm, x2 = 0.067	1.4085
294.73 K, Liquid mixture 2, Wavelength=623.8 nm, x2 = 0.162	1.4131
294.77 K, Liquid mixture 1, Wavelength=623.8 nm, x2 = 0.069	1.4086
294.77 K, Liquid mixture 2, Wavelength=623.8 nm, x2 = 0.157	1.4129
294.8 K, Liquid mixture 1, Wavelength=623.8 nm, x2 = 0.071	1.4087
294.8 K, Liquid mixture 2, Wavelength=623.8 nm, x2 = 0.153	1.4127
294.83 K, Liquid mixture 1, Wavelength=623.8 nm, x2 = 0.073	1.4088
294.83 K, Liquid mixture 2, Wavelength=623.8 nm, x2 = 0.149	1.4125
294.87 K, Liquid mixture 1, Wavelength=623.8 nm, x2 = 0.077	1.409
294.87 K, Liquid mixture 2, Wavelength=623.8 nm, x2 = 0.145	1.4123
294.88 K, Liquid mixture 1, Wavelength=623.8 nm, x2 = 0.079	1.4091
294.88 K, Liquid mixture 2, Wavelength=623.8 nm, x2 = 0.143	1.4122
294.89 K, Liquid mixture 1, Wavelength=623.8 nm, x2 = 0.083	1.4093
294.89 K, Liquid mixture 2, Wavelength=623.8 nm, x2 = 0.141	1.4121
294.9 K, Liquid mixture 1, Wavelength=623.8 nm, x2 = 0.085	1.4094
294.9 K, Liquid mixture 2, Wavelength=623.8 nm, x2 = 0.139	1.412
294.91 K, Liquid mixture 1, Wavelength=623.8 nm, x2 = 0.085	1.4094
294.91 K, Liquid mixture 1, Wavelength=623.8 nm, x2 = 0.087	1.4095
294.91 K, Liquid mixture 2, Wavelength=623.8 nm, x2 = 0.132	1.4117
294.91 K, Liquid mixture 2, Wavelength=623.8 nm, x2 = 0.134	1.4118
294.92 K, Liquid mixture 1, Wavelength=623.8 nm, x2 = 0.088	1.4095
294.92 K, Liquid mixture 1, Wavelength=623.8 nm, x2 = 0.09	1.4096
294.92 K, Liquid mixture 2, Wavelength=623.8 nm, x2 = 0.128	1.4115
294.92 K, Liquid mixture 2, Wavelength=623.8 nm, x2 = 0.13	1.4116
294.93 K, Liquid mixture 1, Wavelength=623.8 nm, x2 = 0.091	1.4097
294.93 K, Liquid mixture 1, Wavelength=623.8 nm, x2 = 0.093	1.4098
294.93 K, Liquid mixture 1, Wavelength=623.8 nm, x2 = 0.097	1.41
294.93 K, Liquid mixture 1, Wavelength=623.8 nm, x2 = 0.099	1.4101
294.93 K, Liquid mixture 2, Wavelength=623.8 nm, x2 = 0.118	1.411
294.93 K, Liquid mixture 2, Wavelength=623.8 nm, x2 = 0.122	1.4112
294.93 K, Liquid mixture 2, Wavelength=623.8 nm, x2 = 0.124	1.4113
294.93 K, Liquid mixture 2, Wavelength=623.8 nm, x2 = 0.126	1.4114

85 kPa, Liquid, Wavelength=632.8 nm, Minimum Deviation
Conditions	refractive index
294.98 K, x2 = 0.798	1.4299
294.98 K, x2 = 0.899	1.4314
295.13 K, x2 = 0.7	1.4281
295.53 K, x2 = 0.099	1.4101
295.95 K, x2 = 0.4	1.4213
296.02 K, x2 = 0.3	1.4182
296.02 K, x2 = 0.599	1.426
296.13 K, x2 = 0.5	1.4238
297.03 K, x2 = 0.798	1.4293
297.03 K, x2 = 0.899	1.4308
297.19 K, x2 = 0.7	1.4275
297.57 K, x2 = 0.3	1.4177
297.68 K, x2 = 0.5	1.4233
297.86 K, x2 = 0.099	1.4092
298.01 K, x2 = 0.4	1.4207
299.09 K, x2 = 0.3	1.4172
299.11 K, x2 = 0.798	1.4287
299.11 K, x2 = 0.899	1.4303
299.22 K, x2 = 0.2	1.4133
299.22 K, x2 = 0.7	1.4269
299.24 K, x2 = 0.5	1.4229
299.91 K, x2 = 0.099	1.4085
300.06 K, x2 = 0.4	1.4201
300.66 K, x2 = 0.3	1.4167
300.8 K, x2 = 0.2	1.4128
300.8 K, x2 = 0.5	1.4224
302 K, x2 = 0.099	1.4077
302.14 K, x2 = 0.4	1.4194
302.24 K, x2 = 0.3	1.4162
302.34 K, x2 = 0.5	1.4219
302.35 K, x2 = 0.2	1.4122
303.8 K, x2 = 0.3	1.4156
303.88 K, x2 = 0.2	1.4117
304.07 K, x2 = 0.099	1.4069
304.17 K, x2 = 0.4	1.4187
304.17 K, x2 = 0.5	1.4213
305.44 K, x2 = 0.2	1.4111
306.2 K, x2 = 0.099	1.4061
307.01 K, x2 = 0.2	1.4105
